From patent US20080214565A1, “Oxazolidinone Derivatives as Antimicrobials” (priority 2003, published 2008)
In brackets after ≈: the same amount, converted by molar mass.

How the values were obtained:
S. aureus ATCC 25923 = assay: MIC by agar incorporation method, S. aureus ATCC 25923; assay type: cell-based, Staphylococus aureus; conditions: in vitro, 18 hours
Source text: (§1) The compounds of the invention display antibacterial activity when tested by the agar incorporation method. The following minimum inhibitory concentrations (μg/ml) were obtained for representative compounds of the invention which are given below in the following table.
(§2) 1) S. aureus ATCC 25923—Staphylococus aureus ATCC 25923 2) MRSA 15187—Methicillin Resistant Staphylococcus aureus 3) Ent. faecalis ATCC 29212—Enterococcus faecalis ATCC 29212 4) Ent. faecium 6A—Enterococcus faecium 6A Van®, Cipro® 5) Strep. pne. ATCC 6303—Streptococcus pneumoniae ATCC 6303 6) Strep. pyog. ATCC 19615—Streptococcus pyogenes 7) S. epidermidis—Staphylococcus epidermidis ATCC 12228
(§3) Briefly, the compounds were dissolved in dimethylsulfoxide and doubling dilution of the compounds were incorporated into Meer Hilton agar before solidification. Inoculum was prepared by suspending 4 to 5 colonies into 5 ml of normal saline solution and adjusting the turbility to 0.5 Macfarland turbidity standard tables (1.5×10^8 CFU/ml), after appropriate dilutions, 10^4 CFU/spot was transferred into the surface of dried plate and incubated for 18 hours (24 hours for MRSN studies). The concentration showing no growth of the inoculated culture was recorded as the MIC. Appropriate ATCC standard strains were simultaneously tested and result recorded only when the MIC's against standard antibiotics were within the acceptable range.

VRE 6A (Ent. faecium 6A) = assay: MIC by agar incorporation method, VRE 6A; assay type: cell-based, Enterococcus faecium; conditions: in vitro, 18 hours
Source text: as §1, §2, §3

S. pneum AB34 = assay: MIC by agar incorporation method, S. pneum AB34; assay type: cell-based, Streptococcus pneumoniae; conditions: in vitro, 18 hours
Method: as §1, §3

Strep. pyog. ATCC 19615 = assay: MIC by agar incorporation method, S. pyogenes 19615; assay type: cell-based, Streptococcus pyogenes; conditions: in vitro, 18 hours
Source text: as §1, §2, §3

Strep. pne. ATCC 6303 = assay: MIC by agar incorporation method, S. pneum 6303; assay type: cell-based, Streptococcus pneumoniae; conditions: in vitro, 18 hours
Source text: as §1, §2, §3

MRSA 562 = assay: MIC by agar incorporation method, MRSA 562; assay type: cell-based, Methicillin Resistant Staphylococcus aureus; conditions: in vitro, 24 hours
Method: as §1, §3

MRSA 15187 = assay: MIC by agar incorporation method, MRSA 15187; assay type: cell-based, Methicillin Resistant Staphylococcus aureus; conditions: in vitro, 24 hours
Source text: as §1, §2, §3

Ent. faecalis ATCC 29212 = assay: MIC by agar incorporation method, E. faecalis 29212; assay type: cell-based, Enterococcus faecalis; conditions: in vitro, 18 hours
Source text: as §1, §2, §3

MRSA 33 = assay: MIC by agar incorporation method, MRSA 33; assay type: cell-based, Methicillin Resistant Staphylococcus aureus; conditions: in vitro, 24 hours
Method: as §1, §3

Row | SMILES | minimum inhibitory concentration, S. aureus 259231 (S. aureus ATCC 25923) [µg/mL] | minimum inhibitory concentration, VRE 6A (VRE 6A (Ent. faecium 6A)) [µg/mL] | minimum inhibitory concentration, S. pneum AB34 (S. pneum AB34) [µg/mL] | minimum inhibitory concentration, S. pyogenes 19615 (Strep. pyog. ATCC 19615) [µg/mL] | minimum inhibitory concentration, S. pneum 6303 (Strep. pne. ATCC 6303) [µg/mL] | minimum inhibitory concentration, MRSA 562 (MRSA 562) [µg/mL] | minimum inhibitory concentration, MRSA 15187 (MRSA 15187) [µg/mL] | minimum inhibitory concentration, E. faecalis 29212 (Ent. faecalis ATCC 29212) [µg/mL] | minimum inhibitory concentration, MRSA 33 (MRSA 33) [µg/mL]
1 | NC(=S)NC[C@H]1CN(c2ccc(N3CCN(Cc4ccc([N+](=O)[O-])o4)CC3)c(F)c2)C(=O)O1 [Compound No. 10, (S)—N-[1-[[3-[3-Fluoro-4-[N-1-[4-{2-furyl-(5-nitro)methyl}]piperazinyl]phenyl]-2-oxo-5-oxazolidinyl]methyl]]-thiourea] | 1 (≈ 2.09 µM) | 1 (≈ 2.09 µM) | 0.24 (≈ 0.502 µM) | 0.25 (≈ 0.522 µM) | <0.06 | 1 (≈ 2.09 µM) | 1 (≈ 2.09 µM) | 0.5 (≈ 1.04 µM) | 1 (≈ 2.09 µM)
2 | NC(=S)NC[C@H]1CN(c2ccc(N3CCN(Cc4ccc([N+](=O)[O-])s4)CC3)c(F)c2)C(=O)O1 [Compound No. 12, (S)—N-[1-[[3-[3-Fluoro-4-[N-1-[4-{2-thienyl-(5-nitro)methyl}]piperazinyl]phenyl]-2-oxo-5-oxazolidinyl]methyl]]-thiourea] | 1 (≈ 2.02 µM) | 0.5 (≈ 1.01 µM) | 0.5 (≈ 1.01 µM) | <0.25 | 0.5 (≈ 1.01 µM) | 0.5 (≈ 1.01 µM) | 0.5 (≈ 1.01 µM) | 1 (≈ 2.02 µM) | 1 (≈ 2.02 µM)
